Assay in all cases: potency against CXCR6 with APJ panel – cell-based, beta-arrestin, DiscoveRx, uHTS hits, dose response (AID 624129)
For test [1], the target named is C-X-C chemokine receptor type 6 (Homo sapiens) (UniProt O00574). The settings on record: CXCR6 beta-arrestin (DiscoveRx) antagonist cell assay; for inhibition: CXCR6, run 1, dose range 2, at 80 µM (top of the series).
Test [2] has as its target Beta-galactosidase (Escherichia coli) (UniProt Q8VNN2). The following applies: CXCR6 beta-arrestin (DiscoveRx) antagonist cell assay, b-galactosidase.
In test [3] the target is Apelin receptor (Homo sapiens) (UniProt P35414). The following applies: CXCR6 beta-arrestin (DiscoveRx) antagonist cell assay, APJ.
Test [4] concerns the target C-C chemokine receptor type 6 (Homo sapiens) (UniProt P51684). The following applies: CXCR6 beta-arrestin (DiscoveRx) antagonist cell assay.
The mark [5] stands for this setting: CXCR6, dose range 1, mean IC50 across replicates.
Setting [6] is: dose range 1, mean IC50 across replicates.
The mark [7] stands for this setting: CCR6, dose range 1, mean IC50 across replicates.

Activity calls are given as the source filed them. No rule for the calls is given here.

Sequence of C-X-C chemokine receptor type 6 (Homo sapiens) (O00574 whole entry, looked up): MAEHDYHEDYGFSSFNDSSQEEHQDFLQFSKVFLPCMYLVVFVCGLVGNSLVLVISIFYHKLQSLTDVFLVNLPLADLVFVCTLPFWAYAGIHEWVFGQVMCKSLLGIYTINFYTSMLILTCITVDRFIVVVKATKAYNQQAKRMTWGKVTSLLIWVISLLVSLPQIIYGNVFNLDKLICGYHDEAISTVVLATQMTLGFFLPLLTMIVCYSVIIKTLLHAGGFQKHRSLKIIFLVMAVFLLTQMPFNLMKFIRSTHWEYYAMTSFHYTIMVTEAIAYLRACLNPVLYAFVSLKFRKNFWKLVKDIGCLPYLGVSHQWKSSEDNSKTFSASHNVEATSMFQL
Sequence of Beta-galactosidase (Escherichia coli) (Q8VNN2 whole entry, looked up): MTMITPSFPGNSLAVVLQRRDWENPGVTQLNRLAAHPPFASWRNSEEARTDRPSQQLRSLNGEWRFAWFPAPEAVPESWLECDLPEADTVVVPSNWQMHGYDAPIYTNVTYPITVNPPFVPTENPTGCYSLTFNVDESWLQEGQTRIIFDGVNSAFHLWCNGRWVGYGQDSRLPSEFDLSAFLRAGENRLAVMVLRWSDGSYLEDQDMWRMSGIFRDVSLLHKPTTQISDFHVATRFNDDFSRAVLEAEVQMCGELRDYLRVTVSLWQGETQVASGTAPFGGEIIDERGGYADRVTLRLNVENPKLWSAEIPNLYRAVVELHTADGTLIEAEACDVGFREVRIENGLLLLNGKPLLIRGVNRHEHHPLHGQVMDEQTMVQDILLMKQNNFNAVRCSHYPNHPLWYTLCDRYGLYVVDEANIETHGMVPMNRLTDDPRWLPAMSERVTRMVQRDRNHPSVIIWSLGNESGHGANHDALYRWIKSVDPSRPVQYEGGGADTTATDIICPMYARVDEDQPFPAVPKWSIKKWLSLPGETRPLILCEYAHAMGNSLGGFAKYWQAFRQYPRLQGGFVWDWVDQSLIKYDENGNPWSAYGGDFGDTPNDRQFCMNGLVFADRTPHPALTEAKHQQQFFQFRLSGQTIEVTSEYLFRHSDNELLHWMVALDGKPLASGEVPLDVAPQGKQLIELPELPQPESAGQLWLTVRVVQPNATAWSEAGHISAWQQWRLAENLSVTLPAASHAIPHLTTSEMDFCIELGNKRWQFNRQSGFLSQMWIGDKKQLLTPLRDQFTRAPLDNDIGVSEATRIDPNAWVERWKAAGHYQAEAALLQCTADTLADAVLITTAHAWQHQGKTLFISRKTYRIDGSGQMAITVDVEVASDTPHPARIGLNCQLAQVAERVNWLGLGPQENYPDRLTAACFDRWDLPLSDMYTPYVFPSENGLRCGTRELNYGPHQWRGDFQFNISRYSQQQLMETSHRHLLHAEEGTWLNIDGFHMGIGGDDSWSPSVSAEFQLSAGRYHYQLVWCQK

The term IC50 denotes the concentration at which inhibition is half-maximal. For the molecule `Cc1c(CCCl)c(Cl)n2c(nc3ccccc32)c1C#N`, the IC50 in test [1] (setting [5]) is 6.38 µM; in test [1] (CXCR6, run 1, dose range 2), 5.75 µM; in test [1] (CXCR6, run 2, dose range 1), more than 80 µM; in test [1] (CXCR6, run 2, dose range 2) it was 7.02 µM; in test [2] (dose range 1), > 80 µM (inactive); in test [2] (setting [6]), more than 80 µM. Further, the IC50 in test [3] (dose range 1) is > 80 µM (inactive); in test [3] (setting [6]), more than 80 µM; in test [3] (run 2, dose range 1) it was more than 80 µM; in test [3] (run 3, dose range 1) it was more than 80 µM; in test [4] (setting [7]), 41.5 µM; in test [4] (CCR6, run 2, dose range 1), 51.1 µM. Further, the IC50 entry in test [4] (CCR6, dose range 1) is “inactive”.
What is called inhibition is the drop in the measured response relative to a control, in per cent. Turning to `O=C(Nc1nnc(-c2cccs2)o1)c1cccc(C(F)(F)F)c1`, the IC50 in test [1] (CXCR6, dose range 1) is > 80 µM (inactive); in test [1] (setting [5]) it was more than 80 µM; in test [1] (CXCR6, run 2, dose range 1), more than 80 µM; in test [2] (dose range 1), > 80 µM (inactive); in test [2] (setting [6]) it was more than 80 µM; in test [3] (setting [6]), more than 80 µM. In addition, the 50% inhibitory concentration (IC50) in test [3] (run 2, dose range 1) was more than 80 µM; in test [3] (run 3, dose range 1), more than 80 µM; in test [4] (setting [7]), more than 80 µM; in test [4] (CCR6, run 2, dose range 1), more than 80 µM. In addition, the inhibition in test [1] was -55.9%.
As for `S=C(N/N=C/c1ccccc1)N1CCOCC1`, the 50% inhibitory concentration (IC50) in test [1] (CXCR6, dose range 1) was 7.03 µM; in test [1] (setting [5]) it was 6.19 µM; in test [1] (CXCR6, run 1, dose range 2), 4.47 µM; in test [1] (CXCR6, run 2, dose range 1), 8.46 µM; in test [1] (CXCR6, run 2, dose range 2), 4.81 µM; in test [2] (dose range 1), > 80 µM (inactive). The IC50 in test [2] (setting [6]) was more than 80 µM; in test [3] (dose range 1) it was 6.85 µM; in test [3] (setting [6]) it was 7 µM; in test [3] (run 2, dose range 1), 7.06 µM; in test [3] (run 3, dose range 1) it was 7.08 µM; in test [4] (CCR6, dose range 1), 5.59 µM. Further, the IC50 in test [4] (setting [7]) is 6.34 µM; in test [4] (CCR6, run 2, dose range 1) it was 7.09 µM.
As to `CC1(C)CC(=O)C2=C(C1)OC1=C(C(=O)CC(C)(C)C1)C2c1ccc(O)cc1O`, the IC50 was 10.3 µM in test [1] (CXCR6, dose range 1); 9.86 µM in test [1] (setting [5]); 9.08 µM in test [1] (CXCR6, run 1, dose range 2); 9.24 µM in test [1] (CXCR6, run 2, dose range 1); 10.8 µM in test [1] (CXCR6, run 2, dose range 2); > 80 µM (inactive) in test [2] (dose range 1). For the same molecule, the IC50 in test [2] (setting [6]) is more than 80 µM; in test [3] (dose range 1) it was 11.2 µM; in test [3] (setting [6]) it was 10.6 µM; in test [3] (run 2, dose range 1), 8.84 µM; in test [3] (run 3, dose range 1), 11.7 µM; in test [4] (CCR6, dose range 1), 4.66 µM. The IC50 in test [4] (setting [7]) turned out to be 5.44 µM; in test [4] (CCR6, run 2, dose range 1), 6.22 µM.
Consider `COc1ccc(C(=O)N/N=C(\C)c2ccccn2)cc1OC`, for which the IC50 in test [1] (CXCR6, dose range 1) was 2.56 µM; in test [1] (setting [5]), 1.99 µM; in test [1] (CXCR6, run 1, dose range 2), 1.65 µM; in test [1] (CXCR6, run 2, dose range 1), 2.6 µM; in test [1] (CXCR6, run 2, dose range 2) it was 1.14 µM; in test [2] (dose range 1), > 80 µM (inactive). The IC50 was more than 80 µM in test [2] (setting [6]); 1.82 µM in test [3] (dose range 1); 2.39 µM in test [3] (setting [6]); 2.48 µM in test [3] (run 2, dose range 1); 2.86 µM in test [3] (run 3, dose range 1); 2.06 µM in test [4] (CCR6, dose range 1). The 50% inhibitory concentration (IC50) in test [4] (setting [7]) is 2.38 µM; in test [4] (CCR6, run 2, dose range 1) it was 2.71 µM.
On to `CN(C)c1nc(=NCc2cccs2)ss1`, for which the IC50 in test [1] (CXCR6, dose range 1) is 4.99 µM; in test [1] (setting [5]), 5.43 µM; in test [1] (CXCR6, run 2, dose range 1), 5.86 µM; in test [2] (dose range 1), > 80 µM (inactive); in test [2] (setting [6]) it was more than 80 µM; in test [3] (dose range 1), 3.71 µM. The IC50 in test [3] (setting [6]) is 3.68 µM; in test [3] (run 2, dose range 1), more than 80 µM; in test [3] (run 3, dose range 1) it was 3.66 µM; in test [4] (CCR6, dose range 1) it was 3.66 µM; in test [4] (setting [7]), 2.37 µM; in test [4] (CCR6, run 2, dose range 1), 1.07 µM. Besides, the inhibition in test [1] is 53%.
With `COc1ccccc1-c1cc(C(F)(F)F)nc(S(=O)(=O)CCCC(=O)NCc2ccc(F)cc2)n1`, the IC50 is > 80 µM (inactive) in test [1] (CXCR6, dose range 1); more than 80 µM in test [1] (setting [5]); more than 80 µM in test [1] (CXCR6, run 2, dose range 1); > 80 µM (inactive) in test [2] (dose range 1); more than 80 µM in test [2] (setting [6]); more than 80 µM in test [3] (setting [6]). Also, the IC50 was more than 80 µM in test [3] (run 2, dose range 1); more than 80 µM in test [3] (run 3, dose range 1); more than 80 µM in test [4] (setting [7]); more than 80 µM in test [4] (CCR6, run 2, dose range 1). In test [1], the inhibition is -37.9%.
Regarding `CN(C(=O)CSC1=Nc2ccccc2C2=NC(c3ccccc3)C(=O)N12)C1CCCCC1` (stereo unspecified), the IC50 in test [1] (CXCR6, dose range 1) is > 80 µM (inactive); in test [1] (setting [5]) it was more than 80 µM; in test [1] (CXCR6, run 2, dose range 1) it was more than 80 µM; in test [2] (dose range 1) it was > 80 µM (inactive); in test [2] (setting [6]) it was more than 80 µM; in test [3] (setting [6]), more than 80 µM. Besides, the IC50 in test [3] (run 2, dose range 1) is more than 80 µM; in test [3] (run 3, dose range 1), more than 80 µM; in test [4] (setting [7]) it was more than 80 µM; in test [4] (CCR6, run 2, dose range 1), more than 80 µM. Besides, the inhibition in test [1] is -15.6%.
